Source: ChEMBL document CHEMBL1138256 (Bioorg Med Chem Lett, 2007)
Active and inactive are the calls of the source. The calls are words filed in the database; no cut-off is given here.

Tested on: not listed separately
Assay: (§1) Inhibition of Clostridium botulinum A recombinant light chain protease LC/A by FRET assay

Row | Structure (SMILES) | IC50 [µM]
1 | O=C(/C=C/c1ccc(Cl)cc1[N+](=O)[O-])NO | 2
2 | O=C(/C=C/c1ccc(Cl)cc1C(F)(F)F)NO | 0.6
3 | COc1cc(Cl)ccc1/C=C/C(=O)NO | 9
4 | Cn1c(C(=O)NO)cc2ccc(Cl)cc21 | 38
5 | CS(=O)(=O)c1cc(Cl)ccc1/C=C/C(=O)NO | 17
6 | N#Cc1cc(Cl)ccc1/C=C/C(=O)NO | 12
7 | O=C(NO)c1ccc2cc(Br)ccc2c1 | 71
8 | O=C(/C=C/c1ccc(Cl)cc1Br)NO | 0.7
9 | O=C(/C=C/c1ccc(Cl)cc1O)NO | 13
10 | O=C(/C=C/c1ccc(Cl)cc1F)NO | 4.4
11 | O=C(/C=C/c1ccc(Cl)cc1Cl)NO [CINNAMIC ACID HYDROXAMATE] | 0.9
12 | CSc1cc(Cl)ccc1/C=C/C(=O)NO | 5.1
13 | O=C(NO)c1cc2ccc(Cl)cc2s1 | 45
14 | O=C(NO)c1ccc2cc(Cl)ccc2c1 | 21
15 | O=C(NO)C1=Cc2ccc(Cl)cc2C1 | 41
16 | Cc1cc(Cl)ccc1/C=C/C(=O)NO | 0.8
17 | Nc1cc(Cl)ccc1/C=C/C(=O)NO | 25

Tested on: Clostridium botulinum
Assay: as §1

Row | Structure (SMILES) | Activity
18 | O=C(NO)c1cc2ccc(Cl)cc2[nH]1 | inactive

Tested on: Clostridium botulinum
Assay: Inhibition of Clostridium botulinum A recombinant light chain protease LC/A by at 100 uM by FRET assay

Row | Structure (SMILES) | Activity
19 | O=C(NO)c1cc2ccc(Cl)cc2[nH]1 | inactive
